# Reference: article PMC6983068, “Identifying Ortholog Selective Fragment Molecules for Bacterial Glutaredoxins by NMR and Affinity Enhancement by Modification with an Acrylamide Warhead” (Molecules, 2019)
# How the values were obtained:
# BrmGRX = target: T1, BrmGRX (Brucella melitensis, UniProt Q8YJA2); assay: biochemical; assay type: binding
# T1 construct: gene BMEI0184
# hGRX1 = target: T2, hGRX1 (Homo sapiens, UniProt P35754); assay type: binding; conditions: read-out: hGRX1 Kd ± S.D.
# T2 sequence (P35754 2-106): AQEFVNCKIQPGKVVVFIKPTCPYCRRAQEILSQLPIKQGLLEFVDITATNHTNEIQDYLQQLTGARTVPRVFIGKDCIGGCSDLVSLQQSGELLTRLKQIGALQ
# PaGRX = target: T3, PaGRX (Pseudomonas aeruginosa, UniProt Q9HU55); assay: biochemical
# T3 construct: gene grx
# T3 sequence (Q9HU55 whole entry): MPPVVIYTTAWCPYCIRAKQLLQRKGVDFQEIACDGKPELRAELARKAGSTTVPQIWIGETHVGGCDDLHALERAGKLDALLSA
# T1 sequence (Q8YJA2 1-92): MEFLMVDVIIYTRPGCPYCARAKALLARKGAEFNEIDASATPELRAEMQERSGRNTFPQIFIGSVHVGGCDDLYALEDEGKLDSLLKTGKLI
Compound,Kd (BrmGRX) [µM],Kd (hGRX1) [µM],Kd (PaGRX) [µM]
O=C(O)c1cc(-c2ccco2)[nH]n1 [RK104],900 ± 150,2890 ± 470,720 ± 160
Cn1nc(-c2ccco2)cc1C(=O)O [RK144],5240 ± 920,5420 ± 900,1920 ± 420
O=C(O)c1ccc(-n2cccn2)cc1 [RK192],5560 ± 510,5050 ± 1270,5260 ± 1120
O=C(O)c1ccc(-n2cccc2)cc1 [RK207],,2450 ± 520,1900 ± 340
Cc1cc2ncc(C(=O)O)c(C)n2n1 [RK208],2280 ± 300,1610 ± 190,560 ± 80
Cn1nc(C(=O)O)cc1-c1ccccc1 [RK246],,5220 ± 1160,8480 ± 2060
CN1CCN(C)c2cc(CN)ccc21 [RK395],5490 ± 3220,1860 ± 1150,510 ± 370
